Measured values reported in PubChem BioAssay AID651973 (The Scripps Research Institute Molecular Screening Center, 2013).
Calls of active or inactive are those of the source. No rule for the calls is given here.

These molecules were tested on Cell-based VP16 transactivation luciferase reporter, luminescence (assay: compounds lowering VP16-driven luciferase output – cell-based, luminescence, counter-screen for LRH-1 inverse agonist project, dose response (AID 651973)).

How did the IC50 turn out when `Cc1onc(-c2cccc(Cl)c2Cl)c1C(=O)O/N=C(\N)c1ccc([N+](=O)[O-])o1` was run?
The IC50 was > 35.9 µM (inactive).

With `O=C(CCl)NCCCN(C(=O)C(Cl)Cl)c1ccc([N+](=O)[O-])cc1` as the molecule, how does the IC50 read?
Its IC50 is 28.4 µM (inactive).

How did the IC50 turn out when `CCCc1nnc(SCC(=O)Nc2ccc(OC)cc2)o1` was run?
Its IC50 is > 35.9 µM (inactive).

How did the IC50 turn out when `Cc1onc(-c2c(F)cccc2Cl)c1C(=O)O/N=C(\N)c1ccc([N+](=O)[O-])o1` was run?
Its IC50 is > 35.9 µM (inactive).

`COc1ccc(CCNC(=O)COC(=O)c2cccn2C)cc1` was tested. Which IC50 did it give?
Its IC50 is > 35.9 µM (inactive).

`CCc1cc(=O)oc2c(C)c(OCC(=O)NC3CC(C)(C)NC(C)(C)C3)ccc12` was tested. Which IC50 did it give?
Its IC50 is > 35.9 µM (inactive).

`COc1ccc(NC(=O)CN2C(=O)NC3(CCCC3)C2=O)cc1` was tested. Which IC50 did it give?
Its IC50 is > 35.9 µM (inactive).

Which IC50 does the source give for `CC(O)(c1cccnc1)c1nc(-c2cccc(C#N)c2)cs1` (configuration not stated) here?
Its IC50 is > 35.9 µM (inactive).

`Cc1ccc(C)c(NC(=O)CSc2nc3[nH]ncc3c(=O)[nH]2)c1` was tested. Which IC50 did it give?
Its IC50 is > 35.9 µM (inactive).

With `CCCNC(=O)c1sc2c(c1C(=O)Nc1ccccn1)CCCC2` as the molecule, how does the IC50 read?
The IC50 was > 35.9 µM (inactive).

How did the IC50 turn out when `O=C(Nc1ccc(Br)cn1)c1ccc([N+](=O)[O-])o1` was run?
The IC50 was > 35.9 µM (inactive).

For `O=C(Nc1ccccc1C(=O)Nc1nccs1)c1ccccc1`, which IC50 is on record?
Its IC50 is 14.7 µM (inactive).

With `O=C(COC(=O)c1ccc(Br)cc1)Nc1ccccc1Br` as the molecule, how does the IC50 read?
Its IC50 is > 35.9 µM (inactive).

Which IC50 does the source give for `COCCn1c(C)cc(/C=C(\C#N)C(=O)OCC(=O)Nc2ccc(S(N)(=O)=O)cc2)c1C` here?
Its IC50 is > 35.9 µM (inactive).

`COc1cc2c(cc1OC)CN(C(=O)CN1C(=O)NC3(CCC(C)CC3)C1=O)CC2` (configuration not stated) was tested. Which IC50 did it give?
Its IC50 is > 35.9 µM (inactive).

Which IC50 does the source give for `O=C(CSc1nnc(CNC(=O)c2c(F)cccc2F)o1)Nc1ccc2c(c1)OCCO2` here?
Its IC50 is > 35.9 µM (inactive).

How did the IC50 turn out when `COc1cc([N+](=O)[O-])ccc1NC(=O)Cn1ccsc1=N` was run?
The IC50 was > 35.9 µM (inactive).

`NS(=O)(=O)c1ccc(CCNC(=O)COc2ccc3c4c(c(=O)oc3c2)CCC4)cc1` was tested. Which IC50 did it give?
Its IC50 is > 35.9 µM (inactive).

For `CCOc1ccc(NC(=O)COC(=O)C2CCC(=O)N2)c([N+](=O)[O-])c1` (configuration not stated), which IC50 is on record?
The IC50 was > 35.8 µM (inactive).

How did the IC50 turn out when `Cc1cc(C)c2nc(NC(=O)c3ccc([N+](=O)[O-])o3)sc2c1` was run?
The IC50 was > 35.9 µM (inactive).

With `Cc1ccc(-c2nn3c(C)nnc3s2)cc1NC(=O)c1cccs1` as the molecule, how does the IC50 read?
Its IC50 is > 35.9 µM (inactive).

`COCCNc1ccc([N+](=O)[O-])cc1C(=O)NC1CCCc2ccccc21` (configuration not stated) was tested. Which IC50 did it give?
The IC50 was > 35.9 µM (inactive).

Which IC50 does the source give for `O=C(CN1C(=O)NC2(CCCC2)C1=O)NCCc1ccc(F)cc1` here?
Its IC50 is > 35.9 µM (inactive).

Which IC50 does the source give for `COc1cccc(NC(=O)c2oc3ccccc3c2NC(=O)C2CC2)c1` here?
Its IC50 is > 35.9 µM (inactive).

How did the IC50 turn out when `COc1cccc(C(=O)COc2cccc(NC(=O)c3cccc([N+](=O)[O-])c3)c2)c1` was run?
Its IC50 is 8.46 µM.

How did the IC50 turn out when `COc1ccc(CCNC(=O)COC(=O)c2cc(Cl)nc(Cl)c2)cc1` was run?
The IC50 was > 35.9 µM (inactive).

For `O=C(CN1C(=O)NC2(CCCCC2)C1=O)NCCc1c[nH]c2ccccc12`, which IC50 is on record?
Its IC50 is > 35.9 µM (inactive).

Which IC50 does the source give for `Cc1cc(C)c2sc(NC(=O)c3ccc([N+](=O)[O-])o3)nc2c1` here?
Its IC50 is > 35.8 µM (inactive).

How did the IC50 turn out when `CCC(C)NC(=O)c1ccc2c(c1)N(Cc1ccccc1)C(=O)CS2` (configuration not stated) was run?
Its IC50 is > 35.9 µM (inactive).

Which IC50 does the source give for `COc1ccc(CCNC(=O)CSc2nn3c(=O)c(C)nnc3s2)cc1OC` here?
Its IC50 is > 35.9 µM (inactive).

`Cc1no[n+]([O-])c1COc1ccccc1/C=N/n1nnnc1N` was tested. Which IC50 did it give?
Its IC50 is > 35.9 µM (inactive).

How did the IC50 turn out when `COC(=O)c1ccc(NC(=O)COc2cccc(-n3cnnn3)c2)cc1` was run?
Its IC50 is > 35.9 µM (inactive).

With `O=C(Nc1ccc(S(=O)(=O)N2CCOCC2)cc1)c1ccc([N+](=O)[O-])o1` as the molecule, how does the IC50 read?
Its IC50 is 25.5 µM (inactive).

For `Cc1cccc(CN2C(=O)CSc3ccc(C(=O)NC4CC4)cc32)c1`, which IC50 is on record?
The IC50 was 26.3 µM (inactive).

How did the IC50 turn out when `C[C@H](CO)N1C[C@H](C)[C@H](CN(C)Cc2ccncc2)Oc2cc(-c3ccccc3F)ccc2S1(=O)=O` was run?
The IC50 was 14.6 µM (inactive).

For `Cc1c(Cl)cccc1NC(=O)CS(=O)(=O)c1ccccc1`, which IC50 is on record?
The IC50 was > 35.8 µM (inactive).

How did the IC50 turn out when `CC(O)(c1cccc(F)c1)c1nc(-c2ccc(S(C)(=O)=O)cc2)cs1` (configuration not stated) was run?
The IC50 was 16.2 µM (inactive).

With `COc1ccc(C2(C)NC(=O)N(CC(=O)Nc3ccc(C)cc3Br)C2=O)cc1OC` (configuration not stated) as the molecule, how does the IC50 read?
The IC50 was > 35.9 µM (inactive).

`Cc1ccc(-c2nn3c(C)nnc3s2)cc1NC(=O)c1ccco1` was tested. Which IC50 did it give?
The IC50 was > 35.9 µM (inactive).

`O=C(OCC(=O)N1CCN(C(=O)COC(=O)c2ccc(O)cc2O)CC1)c1ccc(O)cc1O` was tested. Which IC50 did it give?
The IC50 was > 35.9 µM (inactive).

Which IC50 does the source give for `CCc1cc(=O)[nH]c(SCC(=O)Nc2ccc3c(c2)OCCO3)n1` here?
Its IC50 is > 35.9 µM (inactive).

With `COc1ccc(CCNC(=O)CSc2ccc(NC(C)=O)cc2)cc1OC` as the molecule, how does the IC50 read?
Its IC50 is > 35.9 µM (inactive).

How did the IC50 turn out when `Cc1cc([N+](=O)[O-])ccc1NC(=O)CSc1nnc(C)n1C` was run?
Its IC50 is > 35.8 µM (inactive).

Which IC50 does the source give for `COc1ccc(NC(=O)CSc2sc3c(O)cc(=O)[nH]c3c2C#N)c(OC)c1` here?
The IC50 was > 35.9 µM (inactive).

For `COc1ccc(NC(=O)COC(=O)c2cc(S(=O)(=O)N3CCCC3)ccc2O)cc1`, which IC50 is on record?
Its IC50 is > 35.9 µM (inactive).

Which IC50 does the source give for `COCC(=O)NC1CCN(CC(=O)Nc2ccc(OC)cc2[N+](=O)[O-])CC1` here?
The IC50 was > 35.9 µM (inactive).

How did the IC50 turn out when `CC(=O)Nc1ccc(NC(=O)CSc2ccc(-c3ccco3)nn2)cc1` was run?
The IC50 was > 35.9 µM (inactive).

How did the IC50 turn out when `COc1ccc(OCCNC(=O)C2(C)CCN2Cc2ccc(SC)cc2)cc1` (configuration not stated) was run?
Its IC50 is 28.5 µM (inactive).

`CCC(C)(C)n1nnnc1CN1CCC(O)(c2cccc(C(F)(F)F)c2)CC1` was tested. Which IC50 did it give?
Its IC50 is > 35.9 µM (inactive).

How did the IC50 turn out when `COc1ccccc1NC(=O)CN1CCN(CC(=O)Nc2ccc3c(c2)OCCO3)CC1` was run?
Its IC50 is > 35.9 µM (inactive).

For `CCOc1ccc(NC(=O)CSc2nncc(=O)[nH]2)cc1`, which IC50 is on record?
The IC50 was > 35.9 µM (inactive).

With `COc1cc(/C=N/n2nnnc2N)ccc1OCc1c(C)no[n+]1[O-]` as the molecule, how does the IC50 read?
Its IC50 is > 35.9 µM (inactive).

For `CCOc1ccc(NC(=O)CN2CCN(CC(=O)Nc3ccc(OC)cc3)CC2)cc1`, which IC50 is on record?
The IC50 was > 35.9 µM (inactive).

For `CCCc1cc(=O)oc2c(C)c(OCC(=O)NCCN3CCOCC3)ccc12`, which IC50 is on record?
Its IC50 is > 35.9 µM (inactive).

With `COc1ccc(NC(=O)COC(=O)c2c(-c3ccccc3)noc2C)cc1` as the molecule, how does the IC50 read?
Its IC50 is > 35.9 µM (inactive).

`Cc1c(NC(=S)NC(=O)c2ccc(Cl)cc2)c(=O)n(-c2ccccc2)n1C` was tested. Which IC50 did it give?
Its IC50 is > 35.9 µM (inactive).

`O=C(Nc1ccc(C(=O)N2CCOCC2)cc1)c1cccc([N+](=O)[O-])c1` was tested. Which IC50 did it give?
Its IC50 is > 35.9 µM (inactive).

Which IC50 does the source give for `NC(=O)C1CCN(C(=O)COc2ccc3c4c(c(=O)oc3c2)CCC4)CC1` here?
Its IC50 is > 35.9 µM (inactive).

How did the IC50 turn out when `O=C(NC1CCCC(C(F)(F)F)C1)c1ccc([N+](=O)[O-])o1` (configuration not stated) was run?
Its IC50 is > 35.9 µM (inactive).

With `O=C(Nc1ccc(Cc2ccncc2)cc1)c1cccc([N+](=O)[O-])c1` as the molecule, how does the IC50 read?
The IC50 was > 35.9 µM (inactive).

How did the IC50 turn out when `CCCc1cc(=O)oc2cc(OCC(=O)NCc3ccccn3)ccc12` was run?
Its IC50 is > 35.9 µM (inactive).

Which IC50 does the source give for `CC(O)(c1ccc(F)c(F)c1)c1nc(-c2ccc(S(C)(=O)=O)cc2)cs1` (configuration not stated) here?
The IC50 was 34.7 µM (inactive).

Which IC50 does the source give for `Cc1cc(Br)ccc1NC(=O)CN1C(=O)CCC1=O` here?
Its IC50 is > 35.9 µM (inactive).

`COc1ccc(NC(=O)CSc2ccc3c(c2)OCCO3)cc1` was tested. Which IC50 did it give?
The IC50 was > 35.9 µM (inactive).

With `CC(=O)c1ccc(NC(=O)C(C)O/N=C(\N)c2ccccc2)cc1` (configuration not stated) as the molecule, how does the IC50 read?
Its IC50 is > 35.9 µM (inactive).

Which IC50 does the source give for `N=c1sccn1CC(=O)Nc1ccc(S(N)(=O)=O)cc1` here?
Its IC50 is > 35.9 µM (inactive).

With `Cc1nnc(SCC(=O)Nc2ccc(Br)cc2)n(N)c1=O` as the molecule, how does the IC50 read?
Its IC50 is > 35.9 µM (inactive).
